Legend:
Format in all cases: cell-based
[1] = test system: Pseudomonas aeruginosa CIP A-22; assay: Agar incorporation test (MIC test); settings: P. aeruginosa
Protocol: (§1) Determination of the Minimum Inhibiting Concentration (MIC) in the Agar Incorporation Test (MIC Test)
(§2) When the nutrient substrate has solidified, 10 μl portions of the following organism dilutions of the test strains in 0.85% NaCl solution are spotted onto the agar medium:
(§3) The plates are incubated at 37° C. for 24 hours (A.niger 3 days at 28° C.) and then the highest dilution of the test substance at which growth is just no longer discernible (corresponds to MIC) is determined.

[2] = test system: Staphylococcus epidermidis ATCC 12228; assay: Agar incorporation test (MIC test); settings: S. epidermidis
Protocol: as §1, §2, §3

[3] = test system: Candida albicans ATCC 10231; assay: Agar incorporation test (MIC test); settings: C. albicans
Protocol: as §1, §2, §3

[4] = test system: Corynebacterium xerosis ATCC 373; assay: Agar incorporation test (MIC test); settings: C. xerosis
Protocol: as §1, §2, §3

[5] = test system: Escherichia coli NCTC 8196; assay: Agar incorporation test (MIC test); settings: E. coli
Protocol: as §1, §2, §3

[6] = test system: Staphylococcus aureus ATCC 9144; assay: Agar incorporation test (MIC test); settings: S. aureus
Protocol: as §1, §2, §3

[7] = test system: Aspergillus niger ATCC 6275; assay: Agar incorporation test (MIC test); settings: A. niger
Protocol: as §1, §2, §3

[8] = test system: Pseudomonas aeruginosa ATCC 15 442; assay: Agar diffusion test; also: values in mm; settings: P. aeruginosa ATCC 15 442
Protocol: (§4) Determination of antimicrobial activity in the agar diffusion test [table] After the bacteria precultures have been incubated, they are diluted 1:100 with dilution medium. 3.5 ml of that dilution of the bacteria are introduced into 500 ml of agar and from that organism-containing agar plates of about 15 ml of medium are poured. […] After the agar plates have cooled and solidified, wells are punched in the agar (diameter 10 mm) and 100 μl of test substance solution are introduced into each well. After incubation of the plates, the diameters of the growth-free inhibiting areolas in the agar are determined.

[9] = test system: Candida albicans ATCC 10231; assay: Agar diffusion test; also: values in mm
Protocol: as §4

[10] = test system: Escherichia coli NCTC 8196; assay: Agar diffusion test; also: values in mm; settings: E. coli NCTC 8196
Protocol: as §4

[11] = test system: Staphylococcus aureus ATCC 9144; assay: Agar diffusion test; also: values in mm; settings: S. aureus ATCC 9144
Protocol: as §4

[12] = test system: Aspergillus niger ATCC 6275; assay: Agar diffusion test; also: values in mm; settings: A. niger ATCC 6275
Protocol: Determination of antimicrobial activity in the agar diffusion test [table] After the bacteria precultures have been incubated, they are diluted 1:100 with dilution medium. 3.5 ml of that dilution of the bacteria are introduced into 500 ml of agar and from that organism-containing agar plates of about 15 ml of medium are poured. The test substances are dissolved in a suitable solvent in final concentrations of 1-3%. After the agar plates have cooled and solidified, wells are punched in the agar (diameter 10 mm) and 100 μl of test substance solution are introduced into each well. After incubation of the plates, the diameters of the growth-free inhibiting areolas in the agar are determined.

[13] = 1% in ethanol, C. albicans ATCC 10231
[14] = 2% in ethanol, C. albicans ATCC 10231

Row | Compound | MIC ([1]; solution in EtOH) [ppm] | MIC ([2]; solution in EtOH) [ppm] | MIC ([3]; solution in EtOH) [ppm] | MIC ([4]; solution in EtOH) [ppm] | MIC ([5]; solution in EtOH) [ppm] | MIC ([6]; solution in EtOH) [ppm] | MIC ([7]; solution in EtOH) [ppm] | Inhibiting areola diameter ([12]; 1% in ethanol) | Inhibiting areola diameter ([12]; 2% in ethanol) | Inhibiting areola diameter [9, 13] | Inhibiting areola diameter [9, 14] | Inhibiting areola diameter ([10]; 1% in ethanol) | Inhibiting areola diameter ([10]; 2% in ethanol) | Inhibiting areola diameter ([11]; 1% in ethanol) | Inhibiting areola diameter ([11]; 2% in ethanol) | other results
1 | O=c1oc(-c2ccccc2O)ns1 [compound 101] | 1000 | 100 | 100 | 250 | 1000 | 100 | 100 |  |  |  |  |  |  |  |  | 
2 | O=c1oc(-c2cccnc2)ns1 [compound 103] | 600 | 100 | 100 | 200 | 600 | 100 | 600 |  |  |  |  |  |  |  |  | 
3 | O=c1oc(-c2ccc([N+](=O)[O-])o2)ns1 [compound 105] |  |  |  |  |  |  |  |  |  |  |  |  |  |  |  | Inhibiting areola diameter ([8]; 0.1% in THF): 0/0; Inhibiting areola diameter ([8]; 0.5% in THF): 1/1; Inhibiting areola diameter ([8]; 1.0% in THF): 5/5; Inhibiting areola diameter ([8]; 3.0% in THF): 6/6; Inhibiting areola diameter ([9]; 0.1% in THF, C. albicans ATCC 10 231): 3/3; Inhibiting areola diameter ([9]; 0.5% in THF, C. albicans ATCC 10 231): 4/4; Inhibiting areola diameter ([9]; 1.0% in THF, C. albicans ATCC 10 231): 8/8; Inhibiting areola diameter ([9]; 3.0% in THF, C. albicans ATCC 10 231): 9/9; Inhibiting areola diameter ([10]; 0.1% in THF): 1/1; Inhibiting areola diameter ([10]; 0.5% in THF): 3/3; Inhibiting areola diameter ([10]; 1.0% in THF): 6/6; Inhibiting areola diameter ([10]; 3.0% in THF): 6/6; Inhibiting areola diameter ([11]; 0.1% in THF): 4/4; Inhibiting areola diameter ([11]; 0.5% in THF): 10/10; Inhibiting areola diameter ([11]; 1.0% in THF): 11/11; Inhibiting areola diameter ([11]; 3.0% in THF): 11/11
4 | O=c1oc(-c2ccccc2)ns1 [compound 106] |  |  |  |  |  |  |  |  |  |  |  |  |  |  |  | MIC ([1]; solution in DMSO): 1000 ppm; MIC ([2]; solution in DMSO): 10 ppm; MIC ([3]; solution in DMSO): 100 ppm; MIC ([4]; solution in DMSO): 10 ppm; MIC ([5]; solution in DMSO): 100 ppm; MIC ([6]; solution in DMSO): 10 ppm; MIC ([7]; solution in DMSO): 250 ppm
5 | O=c1oc(-c2ccc(Cl)cc2)ns1 [compound 107] |  |  |  |  |  |  |  | 0/0 | 0/0 | 3/3 | 4/4 | 1/1 | 1/1 | 4/4 | 5/5 | 
6 | Cc1nsc(=O)o1 [compound 108] |  |  |  |  |  |  |  | 4/5 | 12/12 | 8/8 | 10/10 | 1/1 | 3/2 | 12/12 | 20/20 | 

— patent US6689372B1, “Microbicidal active substances” (Ciba Specialty Chemicals Corporation, priority 1998, dated 2004)
